Tests used:
[1] = tested on: person with extremely severe tardive dyskinesia and dystonia; test: Case Report 4: patient self-report of TD treatment effects (weekly log); assay type: in vivo, human; settings: for Memory: Memory and concentration / Well-being: General well being: 10 is best; for Side effects: 10 is none; for Balance: Difficulty maintaining balance / Face/tongue: Severity of face and tongue movements / Sweating / Trunk: Severity of trunk movements: 10 is worst
Description: A person had extremely severe tardive dyskinesia and dystonia, as a result of over 15 years of treatment of bipolar disorder with lithium and an assortment of neuroleptics. Their involuntary movements consisted of forced extension of the trunk, torsion of the lower legs, plantar flexion of the left foot, chorea of both arms, writhing of the tongue and grimacing. In addition, they had profuse sweating associated with the involuntary movements. To sit still in a chair, they had to forcefully grip both arms. In the chair, forced extension of the trunk practically lifted them out of the chair. Their trunk and leg movements led to impaired balance, with a staggering gait and frequent near-falls. The continual severe movements were associated with impairment in concentration, which made their work less efficient. By virtue of talent and intelligence, however, they were able to work competitively as a software engineer. Because their bipolar disorder remained an active problem, continued neurolepric treatment was necessary to maintain their mental health. They were maintained on lithium carbonate 300 mg three times a day, and risperidone 4 mg per day.
Their movement disorder had been treated with benzodiazepines, anticholinergics, and dopamine agonists, all without meaningful benefit. They were then treated with acamprosate, first at a dosage of 333 mg three times a day, and then at a dosage of 666 mg three times a day. Acamprosate therapy was then augmented with magnesium sulfate, 300 mg three times a day.
The patient maintained a weekly log of symptoms, which is reproduced here as Table 4. […] For several of their symptoms—trunk movement, balance, and sweating 666 mg of acamprosate three times a day of acamprosate was more efficacious than 333 mg three • 2) The addition of magnesium was associated with further improvement in several symptoms, i.e., movements of the face and tongue, neck and limbs; • 3) Benefits of acamprosate increased with continued therapy; • 4) Mental function, as indicated by subjective memory, improved along with the involuntary movements; • 5) The addition of memantine aggravated the involuntary movements.

[2] = tested on: person with simple tic of the neck; test: Case Report 5: frequency of simple tic of the neck; assay type: in vivo, human; settings: Case 5
Procedure: A person had simple tic of the neck that involved forceful extension and rotation of the neck to the right. The tic had started in the context of therapy of depression with dextroamphetamine and pramipexole, a dopamine agonist drug. The tic occurred from 20-50 times per hour, with greater frequency when they were tired or under stress.
They were initially treated with 666 mg of acamprosate three times a day. Within 24 hours after the start of acamprosate therapy, the frequency and severity of the tic decreased dramatically, to a rate of less than 5 per hour. The patient often was free of tics completely for 2 to 3 hours after each dose of acamprosate, after which time the tic would very gradually return. The dose was then raised to 666 mg four times a day. On this dose, rates of more than 5 per hour occurred only under unusually stressful circumstances, and there were frequent tic-free periods of 4 hours or more. […] On a second day without acamprosate, the rate of tics was again over 20 per hour.
[…] then added chelated magnesium, at a dosage of 300 mg of elemental magnesium 3 times a day. With magnesium supplementation, the average tic frequency dropped to 6 hour or less. When 666 mg of acamprosate was given three times a day was given together with magnesium 300 mg three times a day, the usual tic-free period after each acamprosate dose increased from approximately 3 hours to approximately 5 hours.

[3] = tested on: patients with dyskinetic movements (TD, tics); test: Inventor's overall clinical experience, cases 1-6; assay type: in vivo, human
Description: The ratio of acamprosate to magnesium can be varied to optimize the therapeutic synergy of the two ingredients. […] At typical therapeutic dosages of acetylhomotaurinate, the amount of magnesium is too low to have therapeutically-relevant effects on glutamate transmission. In my experience, I have had excellent therapeutic results from combining a 2 gram daily dosage of acamprosate with 1 gram of elemental magnesium, given as a salt or chelate. […] Allowing for variations in individual response, and variations in the intestinal absorption of both acamprosate and magnesium, I assert that the optimal ratio of mg:acetylhomotaurinate for an individual patient will be somewhere between 1:6 and 1:1. […] Although magnesium N-acetylhomotaurinate may be slightly more efficacious than calcium N-acetylhomotaurinate for treatment of tic disorders, in the present application we are effectively increasing the magnesium content of acamprosate and related compounds by administering magnesium ion (as a salt or chelate) in combination with a salt of N-acetylhomotaurinate, because there is a significant benefit to administering a higher ratio of magnesium to acamprosate than is present in the magnesium salt of acamprosate.
Relief of symptoms began within 48 hours of administration of acamprosate, and, if a patient discontinued acamprosate, symptoms returned immediately. […]

[4] = in vivo; cited from earlier work
[5] = tested on: person two with long-standing TD; test: Digit Symbol (Case 1); assay type: in vivo, human; settings: ON drug, higher score better
Description: (§1) The following tables report on the results of the neuropsychological tests (Drug I is memantine and Drug II is acamprosate): […]

[6] = tested on: person two with long-standing TD; test: Finger Tapping (Case 1); assay type: in vivo, human; settings: ON drug, higher score better
Description: as §1

[7] = tested on: person two with long-standing TD; test: Grip Strength (Case 1); assay type: in vivo, human; settings: ON drug, higher score better
Description: as §1

[8] = tested on: person two with long-standing TD; test: Figural Fluency (Case 1); assay type: in vivo, human; settings: ON drug
Description: as §1

[9] = week 1, regimen 1: 333 mg three times a day
[10] = week 2, regimen 2: 666 mg three times a day

CC(=O)NCCCS(=O)(=O)O [acamprosate, calcium N-acetylhomotaurinate]
Limbs [1, 9]: 6
Neck [1, 9]: 7
Memory: Memory and concentration [1, 9]: 9
Well-being: General well being [1, 9]: 8
Side effects [1, 9]: 7
Balance: Difficulty maintaining balance [1, 9]: 7
Face/tongue: Severity of face and tongue movements [1, 9]: 5
Sweating [1, 9]: 8
Trunk: Severity of trunk movements [1, 9]: 8
Limbs [1, 10]: 7
Neck [1, 10]: 7
Memory: Memory and concentration [1, 10]: 9
Well-being: General well being [1, 10]: 8
Side effects [1, 10]: 7
Balance: Difficulty maintaining balance [1, 10]: 5
Face/tongue: Severity of face and tongue movements [1, 10]: 7
Sweating [1, 10]: 5
Trunk: Severity of trunk movements [1, 10]: 6
tic-free periods ([2]; 666 mg four times a day): ≥ 4 h
tic rate ([2]; 666 mg three times a day): less than 5 per hour
time to decrease of tic frequency and severity ([2]; after start of therapy): ≤ 24 h
time to beginning of relief of symptoms [3]: ≤ 48 h
absorption from the GI tract [4]: irregularly absorbed

CC12CC3CC(C)(C1)CC(N)(C3)C2 [memantine]
Digit Symbol [5]: 34
Finger Tapping DH [6]: DH = 59.3
Finger Tapping NDH [6]: NDH = 48.5
Grip Strength DH [7]: DH = 17.7
Grip Strength NDH [7]: NDH = 21.7
Figural Fluency Unique Designs ([8]; higher score better): 124
Figural Fluency Perseverations ([8]; lower score better): 8
